Data published in patent US12636270B2, “Levothyroxine liquid formulations” (Fresenius Kabi USA, LLC, priority 2016, dated 2026).
Where two headings read alike, the source gives them in different places.

What was measured:
[1] = 55° C., 1 W, 20 mcg/mL, glycerol 100 mg/mL, normal saline
Method: The HPLC conditions were as follows: • Column: Waters […]™ C8 (5 μm, 4.6×150 mm) HPLC column • Mobile Phase A: Sodium heptanesulfonate/Acetonitrile/Water/Methanol/H3PO4 (4.023 g/800 mL/1600 mL/1600 mL/4 mL) • Mobile Phase B: Sodium heptanesulfonate/Acetonitrile/Water/Methanol/H3PO4 (2.013 g/1000 mL/100 mL/900 mL/2 mL) • Diluent: 0.01 N NaOH • Column temperature: 25° C. • Flow rate: 1.5 mL/min • Injection volume: 40-200 μL • Autosampler temperature: 5° C. • Detection: UV at 225 nm • Separation mode: Gradient Gradient Program:
Separate samples containing levothyroxine sodium at a concentration of 20 mcg/mL and glycerol at a concentration of 100 mg/mL in normal saline were adjusted to pH levels of 7, 8, and 9. 5 mL of each sample was filled into 10 cc amber tubing vials, and the vials were stoppered with 20 mm stoppers under nitrogen. The samples were stored at a temperature of 55° C. The samples were analyzed by HPLC at 1 week of storage using the HPLC conditions described in Example 1. The results for liothyronine, largest unknown impurity, and total impurities as determined by peak area percent are set forth in Table 7.

[2] = 20 mcg/mL, tromethamine 10 mg/mL, 5.4 mg/mL sodium chloride in water
Method: Separate samples containing 20 mcg/mL levothyroxine sodium, 10 mg/mL tromethamine, 5.4 mg/mL sodium chloride, and sodium iodide at a concentration of 280 mcg/mL, 140 mcg/mL, or 6 mcg/mL in water were adjusted to various pH levels. 5 mL of each sample was filled into 10 cc flint molded vials, and the vials were stoppered with 20 mm stoppers under nitrogen.
The samples also were stored at temperatures of 25° C. or 40° C. for 2M or 4M prior to analysis by HPLC.
The HPLC conditions were as follows: • Column: Phenomenex Kinetex 2.6 μm C18, 4.6×150 mm HPLC column • Mobile Phase A: 0.05 M Sulfamic Acid, pH 2.0 • Mobile Phase B: Acetonitrile • Diluent: 10% Mobile Phase A in Methanol: Acetonitrile: Mobile Phase A (1000 mL: 300 mL: 700 mL) • Column temperature: 27° C. • Flow rate: 1.2 mL/min • Injection volume: 50 μL • Autosampler temperature: 25° C. • Detection: UV at 225 nm • Separation mode: Gradient Gradient Program: […]

[3] = 25° C., 2 M, NaI 6 mcg/mL, pH 10.5
[4] = 25° C., 2 M, NaI 140 mcg/mL, pH 9.5
[5] = 25° C., 2 M, NaI 140 mcg/mL, pH 10
[6] = 25° C., 2 M, NaI 140 mcg/mL, pH 10.5
[7] = 25° C., 2 M, NaI 280 mcg/mL, pH 9.5
[8] = 25° C., 2 M, NaI 280 mcg/mL, pH 10
[9] = 25° C., 2 M, NaI 280 mcg/mL, pH 10.5
[10] = 25° C., 4 M, NaI 6 mcg/mL, pH 10.5
[11] = 25° C., 4 M, NaI 140 mcg/mL, pH 9.5
[12] = 25° C., 4 M, NaI 140 mcg/mL, pH 10
[13] = 25° C., 4 M, NaI 140 mcg/mL, pH 10.5
[14] = 25° C., 4 M, NaI 280 mcg/mL, pH 9.5
[15] = 25° C., 4 M, NaI 280 mcg/mL, pH 10
[16] = 25° C., 4 M, NaI 280 mcg/mL, pH 10.5
[17] = 40° C., 2 M, NaI 6 mcg/mL, pH 10.5
[18] = 40° C., 2 M, NaI 140 mcg/mL, pH 9.5
[19] = 40° C., 2 M, NaI 140 mcg/mL, pH 10
[20] = 40° C., 2 M, NaI 140 mcg/mL, pH 10.5
[21] = 40° C., 2 M, NaI 280 mcg/mL, pH 9.5
[22] = 40° C., 2 M, NaI 280 mcg/mL, pH 10
[23] = 40° C., 2 M, NaI 280 mcg/mL, pH 10.5
[24] = 40° C., 4 M, NaI 6 mcg/mL, pH 10.5
[25] = 40° C., 4 M, NaI 140 mcg/mL, pH 9.5
[26] = 40° C., 4 M, NaI 140 mcg/mL, pH 10
[27] = 40° C., 4 M, NaI 140 mcg/mL, pH 10.5
[28] = 40° C., 4 M, NaI 280 mcg/mL, pH 9.5
[29] = 40° C., 4 M, NaI 280 mcg/mL, pH 10
[30] = 40° C., 4 M, NaI 280 mcg/mL, pH 10.5

## N[C@@H](Cc1cc(I)c(Oc2cc(I)c(O)c(I)c2)c(I)c1)C(=O)[O-].[Na+] [Levothyroxine Na, 4-(4-hydroxy-3,5-diiodophenoxy)-3,5-diiodo-L-phenylalanine sodium]
[1]; pH 7
  % Liothyronine: 3.6%
  % largest unknown impurity: 1.16%
  % total impurities: 5.3%
[1]; pH 8
  % Liothyronine: 3.4%
  % largest unknown impurity: 1.30%
  % total impurities: 5.4%
[1]; pH 9
  % Liothyronine: 2.4%
  % largest unknown impurity: 0.82%
  % total impurities: 3.8%
[2]; [3]
  % AOII: 0.46%
  % total impurities: 1.85%
[2]; [4]
  % AOII: 0.09%
  % Liothyronine: 0.29%
  % total impurities: 0.76%
[2]; [5]
  % AOII: 0.10%
  % total impurities: 0.77%
[2]; [6]
  % AOII: 0.12%
  % Liothyronine: 0.24%
  % total impurities: 0.88%
[2]; [7]
  % AOII: 0.11%
  % total impurities: 0.81%
[2]; [8]
  % AOII: 0.12%
  % Liothyronine: 0.24%
  % total impurities: 0.8%
[2]; [9]
  % AOII: 0.11%
  % Liothyronine: 0.23%
  % total impurities: 0.85%
[2]; [10]
  % AOII: 1.21%
  % total impurities: 2.81%
[2]; [11]
  % AOII: 0.18%
  % Liothyronine: 0.35%
  % total impurities: 1.00%
[2]; [12]
  % AOII: 0.17%
  % total impurities: 0.93%
[2]; [13]
  % AOII: 0.17%
  % total impurities: 0.94%
[2]; [14]
  % AOII: 2.14%
  % Liothyronine: 0.35%
  % total impurities: 3.26%
[2]; [15]
  % AOII: 0.17%
  % total impurities: 0.93%
[2]; [16]
  % AOII: 0.11%
  % total impurities: 1.04%
[2]; [17]
  % AOII: 0.91%
  % Liothyronine: 0.43%
  % total impurities: 2.5%
[2]; [18]
  % AOII: 0.14%
  % Liothyronine: 0.88%
  % total impurities: 1.42%
[2]; [19]
  % AOII: 0.14%
  % Liothyronine: 0.55%
  % total impurities: 1.18%
[2]; [20]
  % AOII: 0.15%
  % Liothyronine: 0.41%
  % total impurities: 1.09%
[2]; [21]
  % AOII: 0.13%
  % Liothyronine: 0.9%
  % total impurities: 1.56%
[2]; [22]
  % AOII: 0.13%
  % Liothyronine: 0.55%
  % total impurities: 1.2%
[2]; [23]
  % AOII: 0.17%
  % Liothyronine: 0.39%
  % total impurities: 1.07%
[2]; [24]
  % AOII: 1.45%
  % Liothyronine: 0.6%
  % total impurities: 3.51%
[2]; [25]
  % AOII: 0.72%
  % Liothyronine: 1.3%
  % total impurities: 2.84%
[2]; [26]
  % AOII: 0.92%
  % Liothyronine: 0.86%
  % total impurities: 2.73%
[2]; [27]
  % AOII: 0.69%
  % Liothyronine: 0.59%
  % total impurities: 2.14%
[2]; [28]
  % AOII: 0.52%
  % Liothyronine: 1.23%
  % total impurities: 2.76%
[2]; [29]
  % AOII: 1.38%
  % Liothyronine: 0.84%
  % total impurities: 3.23%
[2]; [30]
  % AOII: 1.07%
  % Liothyronine: 0.58%
  % total impurities: 2.72%
